Holding throughout (assay): inhibition of tumour cell growth, NCI panel, 48 h
Assay [1] has as its system SNB-19 CNS.
In assay [2] the test system is RXF 393 renal.
Assay [3] has as its system MALME-3M melanoma.
In assay [4] the test system is UO-31 renal.
The subject of assay [5] is HOP-92 NSCLC.
Assay [6] has as its system T-47D breast.
The subject of assay [7] is SK-MEL-28 melanoma.
Assay [8] deals with NCI-H460 lung.
Assay [9] deals with SNB-75 CNS.
For assay [10], the system named is RPMI-8226 leukemia.

Structures are written as SMILES.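 Where inhibition never reached the appropriate level, the endpoint shown equals the highest concentration tested. Otherwise, values were interpolated linearly from a five-concentration, 48-hour dose response in 96-well plates. GI50 is the concentration that inhibits growth by half. TGI marks complete inhibition of growth.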

As to `COc1ccc(Nc2c3c4c(cccc4[nH]c2=O)C(=O)c2ccccc2-3)cc1`, the GI50 in assay [1] was 0.684 µM; in assay [2] it was 0.0472 µM; in assay [3], 0.0663 µM; in assay [4] it was 0.319 µM; in [5] it was 0.332 µM; in [6], 38.4 µM. The GI50 is 11 µM in assay [7], less than 0.01 µM in assay [8] and 0.0278 µM in assay [9]. In addition, the TGI in assay [1] is greater than 100 µM; in assay [2], greater than 100 µM; in assay [3], 48.3 µM; in assay [4] it was greater than 100 µM; in [5], greater than 100 µM; in assay [6], greater than 100 µM. Besides, the TGI in assay [7] is greater than 100 µM; in [8], 10.1 µM; in assay [9] it was greater than 72.1 µM.

Consider `O=S(=O)(O)c1ccc(Cl)cc1.[Cd]`, for which the GI50 is greater than 100 µM in assay [1]; 27.3 µM in assay [2]; 32.1 µM in assay [10]; greater than 100 µM in [4]; greater than 100 µM in assay [5]; 27 µM in assay [6]. The GI50 in [7] is greater than 100 µM; in assay [8] it was 4.61 µM; in assay [9], 37.7 µM. The TGI in assay [1] is greater than 100 µM; in assay [2] it was 79.3 µM; in assay [10], greater than 100 µM; in [4], greater than 100 µM; in assay [5] it was greater than 100 µM; in assay [6], 53.8 µM. The TGI in assay [7] is greater than 100 µM; in assay [8], 25.3 µM; in assay [9], 97.2 µM.

As to `COC(=O)CCC(=O)CC(=O)C(=O)Nc1ccc(F)cc1`, the TGI in assay [1], in assay [2], in assay [3], in assay [10], in [4] and in assay [5] was greater than 100 µM each time. Further, the TGI in assay [7], in [8] and in assay [9] was greater than 100 µM each time.

For `O=C(Nc1ccc(Cl)c(Cl)c1)C(=O)Nn1c(=S)[nH]c2ccccc2c1=O`, the TGI in assay [1], in assay [2], in assay [3], in [10], in [4] and in assay [5] was greater than 100 µM throughout. Further, the TGI in assay [7], in assay [8] and in [9] was greater than 100 µM in each case.

As for `CN(C)CCCNC(=O)c1cc(NC(=O)CCNC(=O)c2ccc3c(c2)C(=O)c2ccccc2C3=O)cn1C`, the GI50 is greater than 100 µM in assay [1]; greater than 100 µM in assay [2]; 48 µM in assay [10]; greater than 100 µM in assay [4]; 58.9 µM in assay [5]; 32.5 µM in assay [6]. Moreover, in assay [8], the GI50 was greater than 100 µM. Moreover, the TGI in assay [1] was greater than 100 µM; in assay [2], greater than 100 µM; in assay [10], greater than 100 µM; in [4] it was greater than 100 µM; in assay [5], greater than 100 µM; in assay [6], 75.3 µM. In assay [8], this compound registered a TGI greater than 100 µM.

Consider `O=C(CC1(O)C(=O)Nc2c(Cl)cccc21)c1ccccc1` (stereo not drawn), for which the TGI in assay [1], in assay [2], in [3], in assay [10], in assay [4] and in assay [5] was greater than 100 µM in each case. The TGI in assay [7], in assay [8] and in assay [9] was greater than 100 µM each time.

Take `COc1ccc(CN2C(=O)C(Cc3cc(OC)c(OC)c(C)c3OC)N(C(=O)OC(C)C)C(=O)/C2=C/c2cc(OC)c(OC)c(C)c2OC)cc1` (stereo not drawn): the TGI in [1], in assay [2], in [3], in assay [10], in assay [4] and in assay [5] was greater than 100 µM in each case. The TGI in assay [7], in [8] and in assay [9] was greater than 100 µM throughout.

In the case of `C=CCCC(O)c1ccc(C(O)CCCCCCCCCCCC)o1` (stereo not drawn), the GI50 was 51.6 µM in assay [1]; 16 µM in assay [2]; 27.1 µM in [10]; 18.7 µM in assay [4]; 25.5 µM in assay [5]; 34.3 µM in assay [6]. For the same compound, the results for the GI50 in assay [7], in assay [8] and in [9] were 27.1 µM, greater than 100 µM and 33.3 µM, respectively. In addition, the TGI in assay [1] is greater than 100 µM; in [2], 33.2 µM; in assay [10], greater than 100 µM; in [4], 41.4 µM; in assay [5], 51.2 µM; in assay [6], greater than 100 µM. Moreover, the TGI is 65.5 µM in assay [7], greater than 100 µM in assay [8] and greater than 100 µM in assay [9].

On to `COc1ccc(C(=O)C(c2ccc(OC)cc2)C2C(=O)Oc3ccccc32)cc1` (stereo not drawn), for which the GI50 in [2], in [3], in assay [10], in assay [5], in assay [7] and in assay [8] was greater than 100 µM throughout. Moreover, in assay [9], the GI50 is greater than 100 µM. Besides, the TGI in [2] was greater than 100 µM; in assay [3], greater than 100 µM; in [10], greater than 100 µM; in assay [4], 51.1 µM; in [5] it was greater than 100 µM; in assay [7], greater than 100 µM. Besides, the TGI in [8] and in assay [9] was greater than 100 µM throughout.

`Cc1cc(Cl)ccc1NC(=O)/C(Cl)=C(/Cl)C(=O)O`: the TGI in assay [1] is greater than 100 µM; in [2], 36.3 µM; in assay [10] it was 70.5 µM; in assay [4], greater than 100 µM; in [5] it was 54.5 µM; in assay [6] it was 57.2 µM. The results for the TGI in assay [7], in assay [8] and in [9] were 41 µM, greater than 100 µM and greater than 100 µM, respectively.
